Assay results from patent US12043600B2, “Microbiocidal compounds” (SYNGENTA CROP PROTECTION AG, priority 2018, dated 2024).

Experiments:
[1] = test system: Mycosphaerella arachidis (Cercospora arachidicola); assay: Mycosphaerella arachidis (Cercospora arachidicola)/Liquid Culture (Early Leaf Spot); format: cell-based; conditions: liquid culture, compared to untreated control
Outline: (§1)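 Test compound dissolved in DMSO is dispensed first; nutrient broth (potato dextrose) carrying conidia thawed from cryogenic storage follows.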

[2] = test system: Magnaporthe grisea (Pyricularia oryzae); assay: whole plant or invertebrate; format: in vivo; conditions: foliar, read-out: control of Magnaporthe grisea
[3] = test system: Botryotinia fuckeliana (Botrytis cinerea); assay: Botryotinia fuckeliana (Botrytis cinerea)/Liquid Culture (Gray Mould); format: cell-based; conditions: liquid culture, compared to untreated control
Description: Conidia of the fungus from cryogenic storage are directly mixed into nutrient broth (Vogels broth). After placing a (DMSO) solution of test compound into a microtiter plate (96-well format), the nutrient broth containing the fungal spores is added.

[4] = test system: Glomerella lagenarium (Colletotrichum lagenarium); assay: Glomerella lagenarium (Colletotrichum lagenarium)/Liquid Culture (Anthracnose); format: cell-based; conditions: Colletotrichum orbiculare, liquid culture, compared to untreated control
[5] = test system: Puccinia recondita f. sp. tritici; assay: Puccinia recondita f. sp. tritici/Wheat/Leaf Disc Curative (Brown Rust); format: in vivo; conditions: foliar, wheat leaf disc curative, compared to untreated control
Description: Wheat leaf segments cv. Kanzler are placed on agar in multiwell plates (24-well format). The leaf segments are inoculated with a spore suspension of the fungus. Plates are stored in darkness at 19° C. and 75% rh. The formulated test compound diluted in water is applied 1 day after inoculation. The leaf segments are incubated at 19° C. and 75% rh under a light regime of 12 h light/12 h darkness in a climate cabinet and the activity of a compound is assessed as percent disease control compared to untreated when an appropriate level of disease damage appears in untreated check leaf segments (6-8 days after application).

[6] = test system: Plasmopara viticola; assay: whole plant or invertebrate; format: in vivo; conditions: foliar, read-out: control of Plasmopara viticola
[7] = test system: Puccinia recondita f. sp. tritici; assay: Puccinia recondita f. sp. tritici/Wheat/Leaf Disc Preventative (Brown Rust); format: in vivo; conditions: foliar; for pest or weed control at 200 ppm: wheat leaf disc preventative, compared to untreated control, read-out: control of Puccinia recondita f. sp. tritici; for pest or weed control at 60 ppm: P. recondita prev (B13), read-out: Disease control (%)
[8] = test system: Blumeria graminis f. sp. tritici (Erysiphe graminis f. sp. tritici); assay: Blumeria graminis f. sp. tritici/Wheat/Leaf Disc Preventative (Powdery Mildew on Wheat); format: in vivo; conditions: foliar, wheat leaf disc preventative, compared to untreated control
Outline: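 Wheat cv. Kanzler leaf segments on agar sprayed with formulated compound, inoculated with powdery mildew 1 day later and held at 20° C, 60% rh (24 h dark, then 12 h light/12 h dark). Percent disease control versus untreated scored 6-8 days after application.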

[9] = test system: Mycosphaerella graminicola (Septoria tritici); assay: Mycosphaerella graminicola (Septoria tritici)/Liquid Culture (Septoria Blotch); format: cell-based; conditions: Zymoseptoria tritici; for inhibition of growth at 20 ppm: liquid culture, compared to untreated control; for inhibition of growth at 6 ppm: M. graminicola (B19), read-out: Disease control (%)
Outline: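 Conidia from cryogenic storage mixed into potato dextrose broth and added to microtiter wells already holding DMSO solutions of test compound. Activity expressed as percentage disease control.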

[10] = test system: Phytophthora infestans; assay: whole plant or invertebrate; format: in vivo; conditions: in Solanum lycopersicum, foliar, read-out: control of Phytophthora infestans
[11] = test system: Monographella nivalis (Microdochium nivale); assay: Monographella nivalis (Microdochium nivale)/Liquid Culture (Foot Rot Cereals); format: cell-based; conditions: liquid culture, compared to untreated control
Outline: as §1

[12] = test system: Phakopsora pachyrhizi; assay: Phakopsora pachyrhizi/Soybean/Preventative (Soybean Rust); format: in vivo; conditions: foliar, 288 h, 200 ppm, soybean leaf disc preventative, compared to untreated control, read-out: control of Phakopsora pachyrhizi
[13] = test system: Phaeosphaeria nodorum (Septoria nodorum); assay: Phaeosphaeria nodorum (Septoria nodorum)/Wheat/Leaf Disc Preventative (Glume Blotch); format: in vivo; conditions: Parastagonospora nodorum, foliar, wheat leaf disc preventative, compared to untreated control
Outline: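 Wheat cv. Kanzler leaf discs on agar were sprayed with formulated compound diluted in water and inoculated with P. nodorum spores 2 days later. Discs kept at 20 °C, 75% rh, 12 h light/dark; percent disease control versus untreated scored 5–7 days after application.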

[14] = test system: Pyrenophora teres; assay: Pyrenophora teres/Barley/Leaf Disc Preventative (Net Blotch); format: in vivo; conditions: foliar, P. teres (B15), read-out: Disease control (%)
From the text: Barley leaf segments cv. Hasso are placed on agar in a multiwell plate (24-well format) and sprayed with the formulated test compound diluted in water. The leaf segments are inoculated with a spore suspension of the fungus 2 days after application. […] The data are presented as the percentage of disease control of each compound for the biological tests against G. lagenarium (Example B3), P. recondita preventative (Example B13), P. teres (Example B15) and M. graminicola (Example B19) as described above. The testing rates of each biological test is specifically described in table C1 below.

| Structure (SMILES) | inhibition of growth at 20 ppm [1] [%] | melting point [°C] | pest or weed control at 200 ppm [2] [%] | inhibition of growth at 20 ppm [3] [%] | inhibition of growth at 20 ppm [4] [%] | pest or weed control at 200 ppm [5] [%] | pest or weed control at 200 ppm [6] [%] | pest or weed control at 200 ppm [7] [%] | pest or weed control at 200 ppm [8] [%] | inhibition of growth at 20 ppm [9] [%] | pest or weed control at 200 ppm [10] [%] | inhibition of growth at 20 ppm [11] [%] | pest or weed control at 200 ppm [12] [%] | pest or weed control at 200 ppm [13] [%] | pest or weed control at 200 ppm [14] [%] | pest or weed control at 60 ppm [7] [%] | inhibition of growth at 6 ppm [9] [%] | pest or weed control at 20 ppm ([14]; 20 ppm) [%] |
| --- | --- | --- | --- | --- | --- | --- | --- | --- | --- | --- | --- | --- | --- | --- | --- | --- | --- | --- |
| CO/C=C(\Oc1cc(-n2ccc(C(C)C)n2)c(C)cc1C)C(=O)OC [Compound E-25, methyl (Z)-2-[5-(3-isopropylpyrazol-1-yl)-2,4-dimethyl-phenoxy]-3-methoxy-prop-2-enoate] | ≥ 80 | 96 to 98 | ≥ 80 | ≥ 80 | ≥ 80 | ≥ 80 | ≥ 80 | ≥ 80 | ≥ 80 | ≥ 80 | ≥ 80 | ≥ 80 |  |  |  |  |  |  |
| CO/C=C(\Oc1cc(-n2ccc(C)n2)c(OC)cc1C)C(=O)OC [Compound E-37, methyl (Z)-3-methoxy-2-[4-methoxy-2-methyl-5-(3-methylpyrazol-1-yl)phenoxy]prop-2-enoate] | ≥ 80 | 99 to 101 |  | ≥ 80 |  | ≥ 80 | ≥ 80 | ≥ 80 |  | ≥ 80 |  | ≥ 80 | ≥ 50 |  |  |  |  |  |
| CO/C=C(\Oc1cc(-n2cc(Br)cn2)ccc1C)C(=O)OC [Compound E-47, methyl (Z)-2-[5-(4-bromopyrazol-1-yl)-2-methyl-phenoxy]-3-methoxy-prop-2-enoate] | ≥ 80 |  | ≥ 80 | ≥ 80 | ≥ 80 | ≥ 80 | ≥ 80 | ≥ 80 | ≥ 80 | ≥ 80 | ≥ 80 | ≥ 80 | ≥ 50 | ≥ 80 |  |  |  |  |
| CO/C=C(\Oc1cc(-n2cc(C(C)(C)C)cn2)ccc1C)C(=O)OC [Compound E-49, methyl (Z)-2-[5-(4-tert-butylpyrazol-1-yl)-2-methyl-phenoxy]-3-methoxy-prop-2-enoate] | ≥ 80 |  | ≥ 80 | ≥ 80 | ≥ 80 | ≥ 80 | ≥ 80 | ≥ 80 |  | ≥ 80 | ≥ 80 | ≥ 80 |  | ≥ 80 |  |  |  |  |
| CO/C=C(\Oc1cc(-n2ccc(OC(F)F)n2)ccc1C)C(=O)OC [Compound E-66, methyl (Z)-2-[5-[3-(difluoromethoxy)pyrazol-1-yl]-2-methyl-phenoxy]-3-methoxy-prop-2-enoate] | ≥ 80 | 123 to 126 |  | ≥ 80 | ≥ 80 | ≥ 80 | ≥ 80 | ≥ 80 | ≥ 80 | ≥ 80 |  | ≥ 80 |  | ≥ 80 |  |  |  |  |
| CCOc1ccn(-c2ccc(C)c(O/C(=C\OC)C(=O)OC)c2)n1 [Compound E-94, methyl (Z)-2-[5-(3-ethoxypyrazol-1-yl)-2-methyl-phenoxy]-3-methoxy-prop-2-enoate] | ≥ 80 | 94 to 96 |  | ≥ 80 | ≥ 80 | ≥ 80 | ≥ 80 | ≥ 80 | ≥ 80 | ≥ 80 | ≥ 80 | ≥ 80 |  | ≥ 80 |  |  |  |  |
| CO/C=C(\Oc1cc(-n2ccc(OC)n2)ccc1C)C(=O)OC [Compound E-95, methyl (Z)-3-methoxy-2-[5-(3-methoxypyrazol-1-yl)-2-methyl-phenoxy]prop-2-enoate] | ≥ 80 | 120 to 123 |  | ≥ 80 | ≥ 80 | ≥ 80 | ≥ 80 | ≥ 80 | ≥ 80 | ≥ 80 | ≥ 80 | ≥ 80 |  |  |  |  |  |  |
| CO/C=C(\Oc1cc(-n2cc(C)c(C)n2)ccc1C)C(=O)OC [Compound E-116, methyl (Z)-2-[5-(3,4-dimethylpyrazol-1-yl)-2-methyl-phenoxy]-3-methoxy-prop-2-enoate] | ≥ 80 | 155 to 157 |  | ≥ 80 | ≥ 80 | ≥ 80 | ≥ 80 | ≥ 80 | ≥ 80 | ≥ 80 | ≥ 80 | ≥ 80 |  |  |  |  |  |  |
| CO/C=C(\Oc1cccc(-n2ncc(C3CC3)n2)c1)C(=O)OC [drawing 146] |  |  |  |  |  |  |  |  |  |  |  |  |  |  | 0 | 100 | 90 |  |
| CO/C=C(\Oc1cc(-n2ncc(C3CC3)n2)ccc1C)C(=O)OC [drawing 147] |  |  |  |  |  |  |  |  |  |  |  |  |  |  |  | 100 | 100 | 50 |
| CO/C=C(\Oc1cc(-n2ccc(C(F)(F)F)n2)c(F)cc1C)C(=O)OC [drawing 148] |  |  |  |  |  |  |  |  |  |  |  |  |  |  | 90 | 100 | 100 |  |
| CO/C=C(\Oc1cc(-n2ccc(C(C)C)n2)ccc1C)C(=O)OC [drawing 149] |  |  |  |  |  |  |  |  |  |  |  |  |  |  | 0 | 100 | 100 |  |
